# From patent publication US20210181182A1, “METHOD FOR IDENTIFICATION OF PERTURBAGENS OF PARTICULAR BIOLOGICAL PROCESSES AND CELL SYSTEMS WITHIN LIVING CELLS” (priority 2018, published 2021)
# Where a name gives a salt, the structure may show the parent alone. Read-outs that look alike come from different tables or passages of the source. Marks after values point to notes of the source that are not given here.
# Columns and labels:
# [1] = system: mitochondrial electron transport chain (mETC); assay: FACTORIAL assay: similarity of TFAP to the consensus (invariant) mETC TFAP; format: cell-based, human
# [2] = system: mitochondria membrane potential; settings: cited from earlier work
# [3] = HepG2, 24 h incubation, each value at the concentration [uM]
# [4] = HepG2, 1-hour incubation at concentrations below 60 μM
Molecule,"Pearson correlation with the mETC TFAP, r [1, 3]","MMP assay hitCall [2, 4]","Pearson correlation with the mETC TFAP, r ([1]; 24 h)",MMP assay hitCall [2]
CCc1cc(Cc2cc(CC)cc(C(C)(C)C)c2O)c(O)c(C(C)(C)C)c1,0.827,1,–,–
"O=S(=O)(c1ccc(Cl)cc1)c1ccc(Cl)cc1 [4,4′-Dichlorodiphenyl sulfone]",0.810,1,–,–
COP(=S)(OC)SCn1nnc2ccccc2c1=O [Azinphos-methyl],0.823,0*,–,–
CO/C=C(/C(=O)OC)c1ccccc1Oc1cc(Oc2ccccc2C#N)ncn1 [Azoxystrobin],0.894,0*,–,–
CCCCC(CC)COP(=O)(O)OCC(CC)CCCC (stereo not shown) [Bis(2-ethylhexyl) phosphate],0.838,1,–,–
CCC(C)(c1ccc(O)cc1)c1ccc(O)cc1 [Bisphenol B],0.861,1,–,–
Oc1ccc(Cc2ccc(O)cc2)cc1 [Bisphenol F],0.835,1,–,–
"Cc1ccc(-c2cc(C(F)(F)F)nn2-c2ccc(S(N)(=O)=O)cc2)cc1 [Celecoxib, reference compound]",–,–,0.883,–
"CN(C)CCCN1c2ccccc2CCc2ccc(Cl)cc21 [Clomipramine hydrochloride, reference compound]",–,0*,0.806,–
"CC/C(=C(/CC)c1ccc(O)cc1)c1ccc(O)cc1 [Diethylstilbestrol, reference compound]",–,1,0.812,–
CCOC(=O)[C@@H](C)Oc1ccc(Oc2nc3ccc(Cl)cc3o2)cc1 [Fenoxaprop-P-ethyl],0.827,0,–,–
COC(=O)N(C(=O)N1CO[C@@]2(C(=O)OC)Cc3cc(Cl)ccc3C2=N1)c1ccc(OC(F)(F)F)cc1 [Indoxacarb],0.887,1,–,–
"NC(=O)N/N=C/c1ccc([N+](=O)[O-])o1 [Nitrofurazone, reference compound]",–,0*,0.856,–
CO/C=C(/C(=O)OC)c1ccccc1COc1cccc(C(F)(F)F)n1 [Picoxystrobin],0.885,1,–,–
Cc1cc(C)nc(Nc2ccccc2)n1 [Pyrimethanil],–,0,–,–
CC(COc1ccc(Oc2ccccc2)cc1)Oc1ccccn1 (stereo not shown) [Pyriproxyfen],–,0,–,–
CC(C)=CC1C(C(=O)OCc2coc(Cc3ccccc3)c2)C1(C)C (stereo not shown) [Resmethrin],–,1,–,–
CCN(CC)c1ccc2c(-c3ccccc3C(=O)O)c3ccc(=[N+](CC)CC)cc-3oc2c1.[Cl-] [Rhodamine B],0.810,0,–,–
"C=C(C)[C@H]1Cc2c(ccc3c2O[C@@H]2COc4cc(OC)c(OC)cc4[C@@H]2C3=O)O1 [Rotenone, reference compound]",–,1,–,–
CCc1cccc(C)c1N(C(=O)CCl)[C@@H](C)COC [S-Metolachlor],0.856,0,–,–
O.O.O.O.[Na+].[O-]c1ccccc1-c1ccccc1 [Sodium 2-phenylphenate tetrahydrate],0.807,1,–,–
Cc1cc(C)c(C2=C(OC(=O)CC(C)(C)C)C3(CCCC3)OC2=O)c(C)c1 [Spiromesifen],0.816,1,–,–
CCCN(CC)CC1COC2(CCC(C(C)(C)C)CC2)O1 (stereo not shown) [Spiroxamine],–,0,–,–

Molecule,"Pearson correlation with the mETC TFAP, r [1, 3]","MMP assay hitCall [2, 4]","Pearson correlation with the mETC TFAP, r ([1]; 24 h)",MMP assay hitCall [2]
COC(=O)Nc1ccc(Cl)c(Cl)c1 [Swep],0.927,1,–,–
CO[C@@H]1[C@H](OC(=O)NC(=O)CCl)CC[C@]2(CO2)[C@H]1[C@@]1(C)O[C@@H]1CC=C(C)C [TNP-470],–,0,–,–
"Nc1c2c(nc3ccccc13)CCCC2 [Tacrine, reference compound]",–,0*,0.810,–
CCCCCCCCCCCCCC[N+](C)(C)C [Tetradonium bromide],–,0,–,–
CC(C)=CC1C(C(=O)OCN2C(=O)C3=C(CCCC3)C2=O)C1(C)C (stereo not shown) [Tetramethrin],–,1,–,–
COC(=O)c1c(C(F)F)nc(C(F)(F)F)c(C2=NCCS2)c1CC(C)C [Thiazopyr],–,0,–,–
COC(=O)NC(=S)Nc1ccccc1NC(=S)NC(=O)OC [Thiophanate-methyl],–,0*,–,–
"O=C(O)Cc1cc(I)c(Oc2ccc(O)c(I)c2)c(I)c1 [Tiratricol, reference compound]",–,0,–,–
"Cc1ccc(S(=O)(=O)NC(=O)NN2CCCCCC2)cc1 [Tolazamide, reference compound]",–,0,–,–
CC(C)(C)C(=O)C(Oc1ccc(Cl)cc1)n1cncn1 (stereo not shown) [Triadimefon],–,0,–,–
CC(C)(C)C(O)C(Oc1ccc(Cl)cc1)n1cncn1 (stereo not shown) [Triadimenol],–,0,–,–
CCC[CH2][Sn]([Cl])([CH2]CCC)[CH2]CCC [Tributyltin chloride],–,–,–,1
COP(=O)(OC)C(O)C(Cl)(Cl)Cl (stereo not shown) [Trichlorfon],–,0,–,–
O=C(Nc1ccc(Cl)cc1)Nc1ccc(Cl)c(Cl)c1 [Triclocarban],–,1,–,–
Oc1cc(Cl)ccc1Oc1ccc(Cl)cc1Cl [Triclosan],–,1,–,–
CON=C(C(=O)OC)c1ccccc1CON=C(C)c1cccc(C(F)(F)F)c1 [Trifloxystrobin],–,1,–,–
O=P(Oc1ccccc1)(Oc1ccccc1)Oc1ccccc1 [Triphenyl phosphate],–,1,–,–
"O=P(OCC(Br)CBr)(OCC(Br)CBr)OCC(Br)CBr (stereo not shown) [Tris(2,3-dibromopropyl) phosphate]",–,–,–,1
COP(=O)(OC)O/C(=C\Cl)c1cc(Cl)c(Cl)cc1Cl [Z-Tetrachlorvinphos],0.892,1,–,–
Bisphenol A glycidyl methacrylate,0.939,1,–,–
Chlorpyrifos oxon,0.827,1,–,–
Dinocap,0.897,1,–,–
Mancozeb,0.867,0*,–,–
